These results are taken from patent publication US20260151434A1, “COMPOSITIONS FOR THE TREATMENT OF DISEASE” (priority 2022, published 2026).

Bridge positions count the residues as written; N and C are the ends. Square brackets hold non-standard residues; d marks the D form. Triazole bridges read from a SMILES are 1,4-linked. Peptide text beside a SMILES is read from it. * marks the point of attachment. Benzoyl(3,5-(OH)2) = O=C(c1cc(O)cc(O)c1)*; Lys(N3) = [N-]=[N+]=NCCCC[C@H](N)C(=O)O; dPhe(4-F) = N[C@H](Cc1ccc(F)cc1)C(=O)O; Nle = CCCC[C@H](N)C(=O)O; Pra = C#CC[C@H](N)C(=O)O

The conditions of data set [1]: rabbit, in vivo.
Protocol: (§1) Animals were acclimated to the study and, upon completion of the acclimation period, each animal was physically examined for determination of suitability for study participation. […] Animals were uniquely identified by corresponding cage card number and ear tag.
(§2) The designated peptide formulations (35 μL) were administered to the eye of each animal using a calibrated pipette. With the animal manually restrained, the upper eyelid of the eye was gently elevated to expose the cornea. Treatment was then applied to the cornea without contacting the eye with the pipette tip. The animal was then allowed to blink several times while still manually restrained to distribute the applied solution over the eye prior to being returned to the cage. Treatment was administered once daily (QD) or twice daily (BID) with approximately 8 hours between BID doses. Group 1 was administered a single dose, Group 2 received 4 doses, Group 3 received 8 doses. Samples were collected from 3 animals/group 30 min, 1 hr, 2 hr, 4 hr, and 8 hr post-last dose and from 2 animals/group 24 hours post-last dose.
(§3) Following euthanasia, eyes were enucleated, rinsed 2× with fresh ice-cold PBS, and dabbed dry with gauze. Aqueous humor was removed via a 27- or 30-gauge syringe, placed into a pre-weighted 2 mL polypropylene tube, reweighed, and snap frozen by immersion in liquid nitrogen. The cornea was harvested fresh from each eye, placed into a pre-weighted re-enforced 2 mL polypropylene tube, re-weighed and snap frozen in liquid nitrogen. The remaining ocular tissues were discarded. Ocular samples were stored −80° C. All samples were placed into individual vials and weighed. Aqueous humor and cornea samples were collected.
Data set [2] in a line: in vivo. As to conditions: rabbit, topical or ocular, 35 uL of 5 mg/ml solution per eye per dose.
Protocol: as §1, §2, §3
The subject of data set [3] is corneal edema following descemetorhexis without endothethelial keratoplasty (DWEK) surgery in rabbits. Description: Corneal edema and wound healing after DWEK surgery, topical administration, rabbit. Format: in vivo. The method, then: The objective of the present study was to evaluate the efficacy of the α-MSH peptide analogues in reducing corneal edema following descemetorhexis without endothethelial keratoplasty (DWEK) surgery in rabbits. […] Treatment was administered once (QD) or twice daily (BID) with approximately 6-8 hours between each BID dose.
The rabbits were subjected to a surgical procedure prior to administering topical treatment. The animals received buprenorphine (0.01-0.05 mg/kg SC) and were sedated immediately prior to the procedure with ketamine/xylazine cocktail (20-50/4-10 mg/kg IM). Aseptic precautions were taken for the surgical procedure. […] Sterile eyewash was then used to irrigate the ocular surface of the left eye. […] The animal's corneal epithelium was marked with a circular ring (5 mm) to create a template for resection of the host tissue. […] Descemet's membrane was scored peripherally using a reverse Terry-Sinskey hook, and then Descemet's membrane was peeled from the overlying stroma. Descemet's membrane was removed using forceps. Viscoelastic was removed by Irrigation Aspiration (IA) using balanced salt […] (BSS). One (1) ml of epinephrine 1:1000 and 0.5 ml of heparin (10,000 USP units/ml) was added to each 500 ml of irrigation solution (BSS) to facilitate pupil dilation, control inflammation, and reduce fibrin formation. […]

Data set [4] has as its system iPSC-derived ocular stem cells (ABC-101). Description: ROS assay after TBHP challenge of ocular stem cells. Format: cell-based. As to conditions: 550 uM TBHP challenge, ROS at 3 hours and 4 hours, normalized to challenged wells without peptide, FIGS. 7-8. An excerpt:
To assess the cytoprotective properties of the α-MSH peptide analogues in-vitro the present inventors tested their modulatory influence on reactive oxygen species (ROS) production and caspase activation in response to cellular stress. For these in-vitro challenge assays, the present inventors induced cellular stress using tert-Butyl hydroperoxide (TBHP) or calcium ionophore (A23187), compounds which are respectively known to induce oxidative and metabolic stress. Oxidative stress was correlated to an increase of ROS within cells. […] Within the current assays, the present inventors monitored ROS accumulation and subsequent caspase activity as readouts of cellular stress and eventual cell death. […] Both the ROS and caspase readouts were obtained by using commercially available reagent kits, which are based on a fluorescent indicator readout for each metric per the supplier's protocol. […] Since the assay uses a cell-permeable dye, the readout can be performed within live cells and results in a red fluorescent signal (Ex/Em=520/605 nm), which is correlated to the amount of accumulated ROS within each well. Within the present protocol, the inventors read ROS accumulation over time, starting from 1 hour after incubation up to 4 hours post-incubation. The ocular stem cells (ABC-101 cells) were challenged with 550 uM of TBHP and ROS production was assessed over several hours. […]

Data set [5] has the same test system. Description: Apo-ONE Homogeneous Caspase-3/7 assay after A23187 challenge of ocular stem cells. It counts as cell-based. The text has this: To assess the cytoprotective properties of the α-MSH peptide analogues in-vitro the present inventors tested their modulatory influence on reactive oxygen species (ROS) production and caspase activation in response to cellular stress. For these in-vitro challenge assays, the present inventors induced cellular stress using tert-Butyl hydroperoxide (TBHP) or calcium ionophore (A23187), compounds which are respectively known to induce oxidative and metabolic stress. Oxidative stress was correlated to an increase of ROS within cells. […] Within the current assays, the present inventors monitored ROS accumulation and subsequent caspase activity as readouts of cellular stress and eventual cell death. […] Both the ROS and caspase readouts were obtained by using commercially available reagent kits, which are based on a fluorescent indicator readout for each metric per the supplier's protocol. […] Readouts are routinely taken at 80 min and 150 min after incubation is started. Following a similar layout as with the ROS induction assay, the present inventors subsequently assessed induction of Caspase 3/7 activity following a 1 hour challenge with 2.5 uM A23187. Readings from Caspase 3/7 activation were taken at 80 and 150 minutes post-substrate addition and readouts were compared to non-supplemented controls.

The nature of data set [6]: Solubility comparison. It counts as physicochemical. The text has this:
The MCR agonists in vivo ocular permeability should allow for concentrations well exceeding EC50 values.

Broadly, the Solubility is the dissolved amount per volume that the medium holds. Low readings indicate a poorly soluble substance, high ones a readily soluble substance.

As to `CCCC[C@H](NC(=O)c1cc(O)cc(O)c1)C(=O)N[C@H]1CCCCn2cc(nn2)C[C@@H](C(N)=O)NC(=O)[C@H](Cc2c[nH]c3ccccc23)NC(=O)[C@H](CCCNC(=N)N)NC(=O)[C@@H](Cc2ccc(F)cc2)NC(=O)[C@H](Cc2c[nH]cn2)NC1=O` [Peptide K173, HyBA-Nle-[Lys(N3)-His-Dphe(4-F)-Arg-Trp-Pra]-NH2] ({Benzoyl(3,5-(OH)2)}-[Nle][Lys(N3)]H[dPhe(4-F)]RW[Pra]-NH2; triazole 2-7), in data set [1], the “aqueous humor (AH) concentrations with repeated dosing” value was “increase with repeated dosing” and the “levels after 24 hours” value is given as “measurable levels were detected after 24 hours in all dose groups”. For the same compound, in data set [1] (topical or ocular), the “ocular surface retention and Tmax” value was “prolonged ocular surface retention and Tmax”. Moreover, the level at 24 h in data set [2] (K173 Concentrations (ng/mL) in Rabbit Aqueous Humor OD Sample) turned out to be 3.34 ng/mL. The compound further returned a level at 24 h in data set [2] (K173 Concentrations (ng/mL) in Rabbit Aqueous Humor OS Sample) of 3.94 ng/mL. Moreover, the “wound healing (rate of wound closure, corneal flat mount)” value in data set [3] (3 animals per group, FIGS. 12A, 12B) is recorded as “enhanced wound healing”. Also, the “corneal edema (corneal stromal thickness by OCT)” value in data set [3] (topical 1 mg/ml or 5 mg/ml QD or BID, FIG. 11) is “decreased corneal edema”.
For the compound `CCCC[C@H](NC(=O)c1cc(O)cc(O)c1)C(=O)N[C@H]1CCCCn2cc(nn2)C[C@@H](C(N)=O)NC(=O)[C@H](Cc2c[nH]c3ccccc23)NC(=O)[C@H](CCCNC(=N)N)NC(=O)[C@@H](Cc2ccccc2)NC(=O)[C@H](Cc2c[nH]cn2)NC1=O` [Peptide K174, HyBA-Nle-[Lys(N3)-His-DPhe-Arg-Trp-Pra]-NH2] ({Benzoyl(3,5-(OH)2)}-[Nle][Lys(N3)]H[dF]RW[Pra]-NH2; triazole 2-7), the “protection against ROS accumulation” value in data set [4] was “protective against ROS accumulation down to the low pM range”. In addition, in data set [5] (100 nM peptide, A23187 challenge, FIG. 9), the “percent increase in caspase activation over control” value is reported as “lowest percent increase over control”. In addition, the “Caspase 3/7 activity (protection against apoptosis induction)” value in data set [5] (1 hour challenge with 2.5 uM A23187, readings at 80 and 150 minutes, vs non-supplemented controls, FIGS. 9-10) is “highest degree of protection against apoptosis induction”.
In data set [6], `CCCC[C@H](NC(C)=O)C(=O)N[C@H]1CCCCn2cc(nn2)C[C@@H](C(N)=O)NC(=O)[C@H](Cc2c[nH]c3ccccc23)NC(=O)[C@H](CCCNC(=N)N)NC(=O)[C@@H](Cc2ccccc2)NC(=O)[C@H](Cc2cnc[nH]2)NC1=O` [Peptide K110, Ac-Nle-[Lys(N3)-His-DPhe-Arg-Trp-Pra]-NH2] (Ac-[Nle][Lys(N3)]H[dF]RW[Pra]-NH2; triazole 2-7) registered a Solubility of over 5000 µg/mL.
